Results as given in patent US8445492B2, “Method for inhibiting growth of cancer cells and cell telomere and diseases of cell proliferation by using heteroannelated anthraquinone derivative compounds” (National Defense Medical Center, priority 2008, dated 2013).

Columns and labels:
Format in all cases: cell-based
786-0 = assay: NCI DTP in-vitro dose response, Renal Cancer
A498 = assay: NCI DTP in-vitro dose response, Renal Cancer
ACHN [1] = assay: NCI DTP in-vitro dose response, Renal Cancer; settings: ACHN
CAKI-1 = assay: NCI DTP in-vitro dose response, Renal Cancer
SN12C [2] = assay: NCI DTP in-vitro dose response, Renal Cancer; settings: SN12C
TK-10 = assay: NCI DTP in-vitro dose response, Renal Cancer
UO-31 [3] = assay: NCI DTP in-vitro dose response, Renal Cancer
RXF 393 = assay: NCI DTP in-vitro dose response, Renal Cancer
HCC-2998 = assay: in vitro test at 1.0×10^−5 M, Colorectal cancer cell; settings: 1.0×10^−5 molal concentration (M)
MCF7 = assay: in vitro test at 1.0×10^−5 M, Breast cancer cell; settings: 1.0×10^−5 molal concentration (M)
MDA-MB-435 = assay: in vitro test at 1.0×10^−5 M, Breast cancer cell; settings: 1.0×10^−5 molal concentration (M)
MDA-MB-468 = assay: in vitro test at 1.0×10^−5 M, Breast cancer cell; settings: 1.0×10^−5 molal concentration (M)
T-47D = assay: in vitro test at 1.0×10^−5 M, Breast cancer cell; settings: 1.0×10^−5 molal concentration (M)
IGROV1 = assay: in vitro test at 1.0×10^−5 M, Ovary cancer cell; settings: 1.0×10^−5 molal concentration (M)
OVCAR-4 = assay: in vitro test at 1.0×10^−5 M, Ovary cancer cell; settings: 1.0×10^−5 molal concentration (M)
MOLT-4 = assay: in vitro test at 1.0×10^−5 M, Blood cancer cell; settings: 1.0×10^−5 molal concentration (M)
ACHN [4] = assay: in vitro test at 1.0×10^−5 M, Kidney cancer cell; settings: 1.0×10^−5 molal concentration (M)
SN12C [5] = assay: in vitro test at 1.0×10^−5 M, Kidney cancer cell; settings: 1.0×10^−5 molal concentration (M)
UO-31 [6] = assay: in vitro test at 1.0×10^−5 M, Kidney cancer cell; settings: 1.0×10^−5 molal concentration (M)
LOX IMV1 = assay: in vitro test at 1.0×10^−5 M, Skin cancer cell; settings: 1.0×10^−5 molal concentration (M)
MALME-3M = assay: in vitro test at 1.0×10^−5 M, Skin cancer cell; settings: 1.0×10^−5 molal concentration (M)
SK-MEL-2 = assay: in vitro test at 1.0×10^−5 M, Skin cancer cell; settings: 1.0×10^−5 molal concentration (M)
UACC-257 = assay: in vitro test at 1.0×10^−5 M, Skin cancer cell; settings: 1.0×10^−5 molal concentration (M)
UACC-62 = assay: in vitro test at 1.0×10^−5 M, Skin cancer cell; settings: 1.0×10^−5 molal concentration (M)
SF-539 = assay: in vitro test at 1.0×10^−5 M, CNS cancer cell; settings: 1.0×10^−5 molal concentration (M)
U251 = assay: in vitro test at 1.0×10^−5 M, CNS cancer cell; settings: 1.0×10^−5 molal concentration (M)
[7] = tested on: different cancer cell lines; assay: in vitro test at 1.0×10^−5 M, summary over the cell lines; parameters: unit not given here; settings: 1.0×10^−5 molal concentration (M)
[8] = read-out: LC50 (the source's name)

O=C1c2ccccc2C(=O)c2c1ccc1nccnc21 [TABLE 5-7]
TGI (786-0; 786-0): >1.00E−4 | Percent Growth (786-0; 786-0, Log10 Concentration −4.0): 15% | Percent Growth (786-0; 786-0, Log10 Concentration −5.0): 47% | Percent Growth (786-0; 786-0, Log10 Concentration −6.0): 104% | Percent Growth (786-0; 786-0, Log10 Concentration −7.0): 101% | Percent Growth (786-0; 786-0, Log10 Concentration −8.0): 98% | GI50 (786-0; 786-0, read-out: GI50): 8.87 µM | CC50 (786-0; 786-0, read-out: LC50 (the source's name)): > 100 µM | TGI (A498; A498): 5.03E−5 | Percent Growth (A498; A498, Log10 Concentration −4.0): −21% | Percent Growth (A498; A498, Log10 Concentration −5.0): 49% | Percent Growth (A498; A498, Log10 Concentration −6.0): 89% | Percent Growth (A498; A498, Log10 Concentration −7.0): 85% | Percent Growth (A498; A498, Log10 Concentration −8.0): 93% | GI50 (A498; A498, read-out: GI50): 9.31 µM | CC50 (A498; A498, read-out: LC50 (the source's name)): > 100 µM | TGI (ACHN [1]): >1.00E−4 | Percent Growth (ACHN [1]; Log10 Concentration −4.0): 2% | Percent Growth (ACHN [1]; Log10 Concentration −5.0): 31% | Percent Growth (ACHN [1]; Log10 Concentration −6.0): 77% | Percent Growth (ACHN [1]; Log10 Concentration −7.0): 87% | Percent Growth (ACHN [1]; Log10 Concentration −8.0): 98% | GI50 (ACHN [1]; read-out: GI50): 3.85 µM | CC50 (ACHN [1]; [8]): > 100 µM | TGI (CAKI-1; CAKI-1): >1.00E−4 | Percent Growth (CAKI-1; CAKI-1, Log10 Concentration −4.0): 4% | Percent Growth (CAKI-1; CAKI-1, Log10 Concentration −5.0): 39% | Percent Growth (CAKI-1; CAKI-1, Log10 Concentration −6.0): 87% | Percent Growth (CAKI-1; CAKI-1, Log10 Concentration −7.0): 89% | Percent Growth (CAKI-1; CAKI-1, Log10 Concentration −8.0): 94% | GI50 (CAKI-1; CAKI-1, read-out: GI50): 5.83 µM | CC50 (CAKI-1; CAKI-1, read-out: LC50 (the source's name)): > 100 µM | TGI (SN12C [2]): 9.27E−5 | Percent Growth (SN12C [2]; Log10 Concentration −4.0): −2% | Percent Growth (SN12C [2]; Log10 Concentration −5.0): 57% | Percent Growth (SN12C [2]; Log10 Concentration −6.0): 78% | Percent Growth (SN12C [2]; Log10 Concentration −7.0): 71% | Percent Growth (SN12C [2]; Log10 Concentration −8.0): 87% | GI50 (SN12C [2]; read-out: GI50): 13.2 µM | CC50 (SN12C [2]; [8]): > 100 µM | TGI (TK-10; TK-10): >1.00E−4 | Percent Growth (TK-10; TK-10, Log10 Concentration −4.0): 2% | Percent Growth (TK-10; TK-10, Log10 Concentration −5.0): 36% | Percent Growth (TK-10; TK-10, Log10 Concentration −6.0): 83% | Percent Growth (TK-10; TK-10, Log10 Concentration −7.0): 85% | Percent Growth (TK-10; TK-10, Log10 Concentration −8.0): 102% | GI50 (TK-10; TK-10, read-out: GI50): 5 µM | CC50 (TK-10; TK-10, read-out: LC50 (the source's name)): > 100 µM | TGI (UO-31 [3]; UO-31): 8.59E−5 | Percent Growth (UO-31 [3]; UO-31, Log10 Concentration −4.0): −2% | Percent Growth (UO-31 [3]; UO-31, Log10 Concentration −5.0): 25% | Percent Growth (UO-31 [3]; UO-31, Log10 Concentration −6.0): 73% | Percent Growth (UO-31 [3]; UO-31, Log10 Concentration −7.0): 73% | Percent Growth (UO-31 [3]; UO-31, Log10 Concentration −8.0): 80% | GI50 (UO-31 [3]; UO-31, read-out: GI50): 3.02 µM | CC50 (UO-31 [3]; UO-31, read-out: LC50 (the source's name)): > 100 µM | GI50 (RXF 393; RXF 393): 6.43 µM | TGI (RXF 393; RXF 393): >1.00E−4 | Percent Growth (RXF 393; RXF 393, Log10 Concentration −4.0): 7% | Percent Growth (RXF 393; RXF 393, Log10 Concentration −5.0): 43% | Percent Growth (RXF 393; RXF 393, Log10 Concentration −6.0): 81% | Percent Growth (RXF 393; RXF 393, Log10 Concentration −7.0): 93% | Percent Growth (RXF 393; RXF 393, Log10 Concentration −8.0): 97% | CC50 (RXF 393; RXF 393, read-out: LC50 (the source's name)): > 100 µM

O=C1c2ccccc2C(=O)c2c1ccc1nccnc21 [No. 25, Naphthol-[2,3-f]quinoxaline-7,12-dione]
inhibition effect on cancer cell line (Table 2 value) (HCC-2998): −7.15 | inhibition effect on cancer cell line (Table 2 value) (MCF7): 39.68 | inhibition effect on cancer cell line (Table 2 value) (MDA-MB-435): 102.03 | inhibition effect on cancer cell line (Table 2 value) (MDA-MB-468): 75.28 | inhibition effect on cancer cell line (Table 2 value) (T-47D): 85.19 | inhibition effect on cancer cell line (Table 2 value) (IGROV1): 3.44 | inhibition effect on cancer cell line (Table 2 value) (OVCAR-4): 94.22 | inhibition effect on cancer cell line (Table 2 value) (MOLT-4): 22.91 | inhibition effect on cancer cell line (Table 2 value) (ACHN [4]): 46.52 | inhibition effect on cancer cell line (Table 2 value) (SN12C [5]): 64.65 | inhibition effect on cancer cell line (Table 2 value) (UO-31 [6]): 51.45 | inhibition effect on cancer cell line (Table 2 value) (LOX IMV1): 44.18 | inhibition effect on cancer cell line (Table 2 value) (MALME-3M): 180.88 | inhibition effect on cancer cell line (Table 2 value) (SK-MEL-2): 6.66 | inhibition effect on cancer cell line (Table 2 value) (UACC-257): 91.06 | inhibition effect on cancer cell line (Table 2 value) (UACC-62): 90.47 | inhibition effect on cancer cell line (Table 2 value) (SF-539): 40.72 | inhibition effect on cancer cell line (Table 2 value) (U251): 63.47 | Mean [7]: 69.36
